In US10517889B2, “Modulators of SMAD7 expression” (Ionis Pharmaceuticals, Inc., priority 2017, dated 2019):
Strand notation (5' to 3'): a small letter for the sugar, then the base; units joined by * are phosphorothioate-linked, units joined directly phosphodiester-linked; [ ] holds rarer units or linkages, { } end groups; capitals alone tell only the bases. k = constrained ethyl (cEt); [5mC] = 5-methylcytosine; d = 2'-deoxy (DNA)

What follows are substances tested on human SMAD7 mRNA (assay: Antisense inhibition of human SMAD7 mRNA expression in Hep3B cells by 3-10-3 cEt gapmers, 10,000 nM, electroporation (Example 2)). Conditions: Hep3B cells, 10,000 nM antisense oligonucleotide, electroporation, approximately 24 hours, RT-PCR primer probe set RTS5062, relative to untreated control cells.
Type: cell-based
Method in brief: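 Percent inhibition of SMAD7 mRNA, relative to untreated cells, after ~24 h exposure of electroporated Hep3B cells to 10,000 nM cEt gapmer; levels by qRT-PCR, corrected for total RNA.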

Row | Substance | % Inhibition
1 | 790531 (kT*kG*k[5mC]*dT*dG*dA*dT*dG*dA*dA*d[5mC]*dT*dG*kG*k[5mC]*kG; antisense) [compound 790531] | 8%
2 | 799913 (antisense kG*kG*k[5mC]*d[5mC]*dT*d[5mC]*dA*dG*dA*dG*dG*dA*dA*kG*kG*kG) [compound 799913] | 18%
3 | 799973 (kA*kT*kA*dA*dT*dT*d[5mC]*dA*d[5mC]*dA*dA*dG*dG*kA*k[5mC]*k[5mC]; antisense) [compound 799973] | 0%
4 | 800095 (antisense kA*kG*kT*dT*dA*d[5mC]*dA*dG*dA*dT*d[5mC]*dT*dT*kT*k[5mC]*kA) [compound 800095] | 47%

Same assay, conditions: Hep3B cells, electroporation with 10,000 nM antisense oligonucleotide, approximately 24 hours, RTS5062, percent inhibition of SMAD7 mRNA relative to untreated control cells

Row | Substance | % Inhibition
5 | 799762 (antisense kG*kT*k[5mC]*d[5mC]*dT*dA*dA*dA*dG*dA*d[5mC]*dG*dG*k[5mC]*kT*k[5mC]) [compound 799762] | 21%

Same assay, conditions: Hep3B cells, electroporation with 10,000 nM antisense oligonucleotide, approximately 24 hours, SMAD7 mRNA by RT-PCR (RTS5062), relative to untreated control cells

Row | Substance | % Inhibition
6 | 799352 (kG*k[5mC]*kG*dG*dT*dG*dA*dT*dT*dG*d[5mC]*d[5mC]*dT*kT*kG*kA; antisense) [compound 799352] | 24%
7 | 799969 (kT*kT*kA*dG*dA*dG*dT*dG*dA*dG*dT*dT*d[5mC]*k[5mC]*kT*k[5mC]; antisense) [compound 799969] | 46%
8 | 799968 (k[5mC]*kT*kG*d[5mC]*dG*dA*dG*dT*dT*dA*dA*dT*d[5mC]*kA*kG*kA; antisense) [compound 799968] | 27%
9 | 830019 (antisense kA*kG*kG*d[5mC]*d[5mC]*d[5mC]*dA*dA*d[5mC]*dA*dG*d[5mC]*d[5mC]*kA*kA*kA) [compound 830019] | 16%
10 | 830203 (kG*k[5mC]*kT*d[5mC]*dT*dG*dA*dA*dG*dG*d[5mC]*dT*dA*k[5mC]*kA*k[5mC]; antisense) [compound 830203] | 40%
11 | 830147 (antisense kG*kA*k[5mC]*dT*dG*dG*dT*d[5mC]*dT*dT*d[5mC]*dA*d[5mC]*k[5mC]*kA*kG) [compound 830147] | 0%
12 | 830189 (antisense kT*kT*kG*dG*dA*dG*d[5mC]*dA*dA*d[5mC]*dA*d[5mC]*d[5mC]*kA*kG*kA) [compound 830189] | 49%
13 | 830148 (antisense kG*kG*kA*d[5mC]*dT*dG*dG*dT*d[5mC]*dT*dT*d[5mC]*dA*k[5mC]*k[5mC]*kA) [compound 830148] | 19%
14 | 830182 (antisense kG*kT*kG*dT*d[5mC]*d[5mC]*dT*dT*d[5mC]*dA*dG*dA*dA*k[5mC]*kA*k[5mC]) [compound 830182] | 0%
15 | 800004 (kT*kT*kT*dT*dA*dA*dT*dT*dT*dG*dA*dA*dG*kG*k[5mC]*kG; antisense) [compound 800004] | 8%
16 | 800103 (antisense kG*kG*kA*d[5mC]*dG*dA*dG*dA*d[5mC]*dA*dG*dA*dA*kA*kG*kA) [compound 800103] | 4%
17 | 830075 (kT*k[5mC]*kA*dG*dG*dG*dT*dG*dT*d[5mC]*dA*dG*d[5mC]*k[5mC]*k[5mC]*kA; antisense) [compound 830075] | 39%
18 | 799926 (antisense k[5mC]*k[5mC]*k[5mC]*dA*dA*dG*d[5mC]*d[5mC]*dT*dA*d[5mC]*dA*dT*kA*kT*kT) [compound 799926] | 17%
19 | 830052 (kG*kA*kG*dT*dA*dA*d[5mC]*d[5mC]*dA*dG*d[5mC]*dT*dG*kT*k[5mC]*kT; antisense) [compound 830052] | 35%
20 | 798740 (antisense kT*kT*kG*dA*dG*d[5mC]*dA*d[5mC]*d[5mC]*dG*dA*dG*dT*kG*k[5mC]*kG) [compound 798740] | 56%

Same assay, conditions: Hep3B cells, electroporation with 10,000 nM antisense oligonucleotide, approximately 24 hours, primer probe set RTS5062, relative to untreated control cells

Row | Substance | % inhibition of SMAD7 mRNA expression | % Inhibition
21 | 799064 (antisense kT*kA*kA*dT*dT*dG*dG*dT*dT*d[5mC]*dT*dG*dG*kT*kT*k[5mC]) [compound 799064] | 47% | 
22 | 799262 (antisense k[5mC]*kT*k[5mC]*dT*dT*dT*dG*d[5mC]*d[5mC]*d[5mC]*d[5mC]*dA*dA*kA*kA*k[5mC]) [compound 799262] | 0% | 
23 | 799149 (antisense kG*kG*kA*dT*dG*dG*dT*dA*d[5mC]*d[5mC]*dT*dT*dG*kG*kG*kT) [compound 799149] | 46% | 
24 | 799120 (antisense kA*kA*kT*dA*dG*d[5mC]*dA*dG*dA*dG*d[5mC]*dT*dT*kA*kA*k[5mC]) [compound 799120] |  | 45%
25 | 799101 (antisense kG*kG*kA*dA*dA*dA*dA*d[5mC]*d[5mC]*dT*dG*dA*dT*kG*kT*k[5mC]) [compound 799101] |  | 55%
26 | 798807 (kA*kT*k[5mC]*dT*dG*dA*dA*dA*dG*d[5mC]*d[5mC]*d[5mC]*d[5mC]*k[5mC]*k[5mC]*kA; antisense) [compound 798807] | 64% | 
27 | 799082 (antisense kG*k[5mC]*k[5mC]*d[5mC]*dA*dT*d[5mC]*dT*d[5mC]*dA*dG*dG*dG*kA*kG*kA) [compound 799082] |  | 27%
28 | 799232 (kT*k[5mC]*kA*dG*d[5mC]*dT*dA*dG*dG*dT*dG*dA*dT*kA*kA*k[5mC]; antisense) [compound 799232] | 13% | 
29 | 798979 (antisense kG*kT*kG*dT*dT*dT*dG*dG*dT*dG*dG*dT*dG*k[5mC]*kT*kT) [compound 798979] |  | 19%
30 | 798937 (antisense kG*kT*kT*dT*dG*d[5mC]*dA*dT*dG*dA*dA*dA*dA*kG*k[5mC]*kA) [compound 798937] |  | 35%
31 | 799265 (antisense k[5mC]*kT*kT*d[5mC]*d[5mC]*dA*dT*d[5mC]*d[5mC]*dA*dA*d[5mC]*dT*k[5mC]*kT*k[5mC]) [compound 799265] | 3% | 
32 | 799425 (antisense kA*kT*kT*dA*dT*dA*dG*d[5mC]*dA*dA*dA*dA*dT*kG*kG*kA) [compound 799425] | 23% | 
33 | 790617 (k[5mC]*kT*kA*d[5mC]*dA*dA*dT*dG*d[5mC]*dT*dA*dA*dA*kT*kT*kT; antisense) [compound 790617] |  | 0%
34 | 798730 (antisense kG*kG*kT*dG*dA*d[5mC]*d[5mC]*dT*dT*dT*dG*dG*d[5mC]*kA*k[5mC]*k[5mC]) [compound 798730] | 0% | 
35 | 798980 (antisense kA*k[5mC]*kA*d[5mC]*dT*dG*dT*dG*dT*dT*dT*dG*dG*kT*kG*kG) [compound 798980] |  | 50%
36 | 799134 (antisense kA*k[5mC]*kT*dG*d[5mC]*dT*dA*dA*dG*d[5mC]*dA*dT*dG*kT*k[5mC]*k[5mC]) [compound 799134] |  | 17%
37 | 798985 (antisense kG*kA*k[5mC]*d[5mC]*dG*d[5mC]*d[5mC]*d[5mC]*d[5mC]*d[5mC]*d[5mC]*dT*dT*k[5mC]*kA*kT) [compound 798985] | 41% | 
38 | 799037 (k[5mC]*k[5mC]*k[5mC]*d[5mC]*dA*dG*d[5mC]*d[5mC]*dG*d[5mC]*d[5mC]*dA*dG*k[5mC]*kT*kT; antisense) [compound 799037] |  | 9%

Same assay, conditions: Hep3B cells, electroporation, 10,000 nM antisense oligonucleotide, approximately 24 hours, RTS5062, relative to untreated control cells

Row | Substance | % inhibition of SMAD7 mRNA expression
39 | 799694 (antisense kA*kA*kG*dG*dA*dA*dT*dT*dA*dT*dG*dA*d[5mC]*kA*k[5mC]*kA) [compound 799694] | 7%

Same assay, conditions: Hep3B cells, electroporation, 10,000 nM, approximately 24 hours; 3-10-3 cEt gapmers targeting SEQ ID NO: 3 and 4

Row | Substance | % inhibition of SMAD7 mRNA expression
40 | 829941 (k[5mC]*kA*kG*dT*d[5mC]*dA*dG*dT*dT*dG*dG*dT*dT*kT*kG*kA; antisense) [compound 829941] | 8%

Same assay, conditions: SMAD7 mRNA, Hep3B cells, 10,000 nM antisense oligonucleotide, electroporation, approximately 24 hours, primer probe set RTS5062, relative to untreated control cells

Row | Substance | % Inhibition
41 | 800768 (antisense kG*k[5mC]*kG*d[5mC]*dT*d[5mC]*d[5mC]*dG*dT*dG*dG*d[5mC]*dA*kT*kG*k[5mC]) [compound 800768] | 18%
42 | 801003 (antisense kG*kA*kA*dT*d[5mC]*dA*dA*dG*d[5mC]*d[5mC]*d[5mC]*dT*dG*kG*k[5mC]*kT) [compound 801003] | 38%
43 | 829733 (antisense kA*k[5mC]*k[5mC]*dA*dT*dG*dA*dA*dG*dA*dA*dG*dT*k[5mC]*kG*kG) [compound 829733] | 54%
44 | 772809 (k[5mC]*k[5mC]*kT*dA*dA*dA*d[5mC]*dT*dG*dA*dG*d[5mC]*d[5mC]*k[5mC]*k[5mC]*kA; antisense) [compound 772809] | 48%

Same assay, conditions: SMAD7 mRNA, Hep3B cells, electroporation with 10,000 nM antisense oligonucleotide, approximately 24 hours, primer probe set RTS5062, relative to untreated control cells

Row | Substance | % Inhibition
45 | 829898 (antisense kT*kG*kG*d[5mC]*dG*dG*dG*dT*dG*dT*dA*dG*d[5mC]*kA*k[5mC]*kT) [compound 829898] | 31%
46 | 829939 (kA*k[5mC]*kA*dT*dT*d[5mC]*dA*dG*d[5mC]*dT*dA*dG*dG*kT*kG*kA; antisense) [compound 829939] | 34%
47 | 829957 (k[5mC]*kA*k[5mC]*d[5mC]*dT*dT*dG*dT*d[5mC]*dA*d[5mC]*d[5mC]*d[5mC]*kG*kT*k[5mC]; antisense) [compound 829957] | 41%
48 | 829926 (k[5mC]*kA*kT*dG*d[5mC]*dT*d[5mC]*dA*dT*dT*dG*dA*dG*k[5mC]*kT*kA; antisense) [compound 829926] | 24%
49 | 829897 (antisense kG*k[5mC]*kG*dG*dG*dT*dG*dT*dA*dG*d[5mC]*dA*d[5mC]*kT*kG*kG) [compound 829897] | 40%
50 | 830002 (kT*kA*kG*d[5mC]*d[5mC]*d[5mC]*dA*dA*d[5mC]*dT*dG*dT*dT*kT*kG*kT; antisense) [compound 830002] | 43%
